For assay [1], the system named is digestive lipase solution (mixture of pancreatic lipase, intestinal lipase, and the like) from rat intestinal acetone powder. Kind of assay: Test 1: digestive lipase activity inhibition test with linoleic acid and oleic acid (Lipase Kit S, absorbance 412 nm). The assay is classed as biochemical. Conditions: DMSO solution. On the procedure:
30 mL of 0.1 M citrate buffer solution (pH 6.0) was added to 30 mg of rat intestinal acetone powder (manufactured by SIGMA Corporation), shaken in ice for 1 hour, and centrifuged at 4° C. and 10,000 rpm for 45 minutes, to obtain a digestive lipase solution. The digestive lipase solution is a mixture of pancreatic lipase, intestinal lipase, and the like. […] After that, 25 μL of the substrate solution was added, and the reaction was carried out at 30° C. for 30 minutes in the dark. After that, 700 μL of a reaction stop solution was added, and the absorbance at 412 nm was measured for this solution. As the coloring solution, the substrate solution, the esterase inhibitor, and the reaction stop solution, those attached to Lipase Kit S (manufactured by SB Bioscience Co., Ltd.) were used. A control was prepared in a new 1.5 mL capacity tube for the purpose of measuring the absorbance of the above samples and reagents themselves. […] After that, 700 μL of reaction stop solution and 25 μL of substrate solution were added, and the absorbance at 412 nm was measured. In addition, blank a was prepared in the same manner as in the activity evaluation except that only DMSO was added instead of the DMSO solution of each sample, and blank b was prepared in the same manner as the control by adding only DMSO (control blank). Absorbance at 412 nm was also measured for blank a and blank b. Digestive lipase activity when each sample was added was calculated by the following equation. Digestive lipase activity (%)=100×(absorbance of each sample−absorbance of control)/(absorbance of blank a−absorbance of blank b) (Results)

Assay [2] shares this test system. The assay is described as follows: Test 2: digestive lipase activity inhibition test with mixture of linoleic acid and oleic acid. Format: biochemical. The settings on record: 0.009 mg/mL linoleic acid aqueous solution, final concentration.
Description: A control was prepared in a new 1.5 mL capacity tube for the purpose of measuring the absorbance of the above samples and reagents themselves. […] After that, 700 μL of reaction stop solution and 25 μL of substrate solution were added, and the absorbance at 412 nm was measured. […] Absorbance at 412 nm was also measured for blank a and blank b.
First, the digestive lipase activity inhibition rate of each sample was calculated according to the equation shown below.

Data on three compounds can be found in patent US12653801B2, “Digestive lipase activity inhibitor, blood triglyceride concentration increase inhibitor, and fat absorption inhibitor” (Pharma Foods International Co., Ltd., priority 2020, dated 2026).

Regarding `CCCCC/C=C\C/C=C\CCCCCCCC(=O)O` [linoleic acid], in assay [1] (0.19 mg/mL final concentration, 30° C. 30 minutes), the Digestive lipase activity stood at 8.9%. In assay [2], the “Digestive lipase activity inhibition rate” value was determined as 9.6%. Consider `CCCCCCCC/C=C\CCCCCCCC(=O)O` [oleic acid], for which the Digestive lipase activity in assay [1] (0.16 mg/mL final concentration, 30° C. 30 minutes) is 7.1%. Regarding `c1cc2c(cc1[C@H]1OC[C@H]3[C@@H]1CO[C@@H]3c1ccc3c(c1)OCO3)OCO2` [sesamin, reference compound], the Digestive lipase activity in assay [1] (0.044 mg/mL final concentration, for comparison) stood at 110.9%.
